Test results published in US7795495B2, “Transgenic mice for screening for inhibitors of protein aggregation and methods for making and using them” (The Regents of the University of California, priority 2000, dated 2010).

How the values were obtained:
B103 cells = B103 cells overexpressing synuclein: cell adhesion and neurite extension; format: cell-based; conditions: catalase 100 µg/ml, superoxide dismutase 100 U/ml, vitamin E 500 µM
[1] = Aggregation of synuclein proteins under high temperature conditions (SDS-PAGE/Coomassie brilliant blue); format: physicochemical; conditions: 20 µM protein, pH 6.9, 65 °C, 0, 8 and 20 hours
Procedure: Each of the protein samples (20 µM) was incubated under pH 6.9, 65° C. conditions for 0, 8, and 20 hours. The incubated samples were run over SDS-PAGE and the resulting protein bands visualized by Coomassie/brilliant blue staining (FIG. 2).

[2] = tested on: GT1-7 murine hypothalamic neuronal cells; experiment: GT1-7 cells overexpressing α-synuclein: mitochondrial alterations and oxidative stress; format: cell-based
Procedure: To determine if the overexpression of α-synuclein causes dysregulated neuronal function, GT1-7 cells were transfected with the mammalian expression vector pCR3.1 (Invitrogen) using standard transfection protocols well known in the art. The cells were transfected with or without insertion of murine α-synuclein cDNA. The resulting expression of α-synuclein was measured at both mRNA and protein levels using RPA and immunoblotting analysis. Clones which either overexpressed or underexpressed α-synuclein (via transfection with an anti-sense plasmid) were selected and analyzed. […] These alterations were ameliorated by pretreatment with the anti-oxidant, vitamin E. Furthermore, α-synuclein overexpression in GT1-7 cells results in the formation of α-synuclein—immunopositive inclusion-like structures.

α-synuclein tg mice = experiment: Bigenic crosses: β-synuclein overexpression in α-synuclein tg mice (rotorod, neuropathological analysis); format: in vivo
From the text: Motor deficits in Lewy body disease are associated with degeneration of the nigral dopaminergic neurons projecting to the striatum. To determine if loss of dopaminergic input to the striatum in transgenic mice is associated with Parkinson's disease related neurological impairments, mice were examined with a rotorod test, a behavioral testing mechanism well known to those familiar with such procedures. […] The dopaminergic and behavioral deficits were detected only in the high expression line and not in low-expression lines. […] This may lead to the conclusion that a critical threshold of α-synuclein accumulation is required for dopaminergic and behavioral deficits to become detectable. None-the-less, the evaluation of such neurophysiological characteristics, as previously described, are well known to those of skill in such evaluations. As such, it is apparent that the increased expression of wild-type α-synuclein plays a key role in the pathogenesis of neurodegenerative conditions associated with amyloidogenesis.

B103 neuroblastoma cells = experiment: Aβ cytotoxicity in B103 neuroblastoma cells; format: cell-based; conditions: for effect on Aβ cytotoxicity / cell survival: Aβ 20 µM, serum-free, three days, protein 20 µM
Procedure: When B103 neuroblastoma cells were incubated with Aβ (20 µM) under serum-free conditions for three days, dead cells become prominent due to the cytotoxic effects of Aβ.

[3] = target: SDS-resistant complexes of α-synuclein and Aβ1-40 (Homo sapiens, UniProt P37840); experiment: Formation of SDS-resistant complexes of α-synuclein and Aβ1-40, immunoblotting analysis; format: biochemical; conditions: 10 µM α-synuclein, 10 µM Aβ1-40, 100 µM peptide
From the text: Those in the art generally agree that β-Synuclein blocks Aβ proto-fibril formation by one of two possible mechanistic pathways. In the first pathway, inhibition is facilitated through indirectly blocking NAC or α-synuclein interaction with Aβ. In the second possible pathway, inhibition is facilitated by the direct blocking Aβ aggregation.

superoxide dismutase
effect of anti-oxidants on altered adhesion and neurite outgrowth of synuclein overexpressing cells (B103 cells): little effect

β-synuclein .delta.1: β-synuclein mutant with amino acids 72-83 of NAC inserted by site-directed mutagenesis
formation of aggregates / amyloid-like fibrils under high temperature conditions [1]: aggregated to form amyloid-like fibrils

catalase
effect of anti-oxidants on altered adhesion and neurite outgrowth of synuclein overexpressing cells (B103 cells): little effect

vitamin E
effect of anti-oxidants on altered adhesion and neurite outgrowth of synuclein overexpressing cells (B103 cells): little effect
effect of pretreatment on alterations caused by α-synuclein overexpression (mitochondrial alterations, free radicals, glutathione, gonadotropin-releasing hormone secretion) [2]: ameliorated

β-synuclein .delta.2: β-synuclein mutant with amino acids 63-72 of NAC N-terminal inserted by site-directed mutagenesis
formation of aggregates / amyloid-like fibrils under high temperature conditions [1]: aggregated to form amyloid-like fibrils

β-synuclein
formation of aggregates / amyloid-like fibrils under high temperature conditions [1]: fails to show any formation of aggregates
motor deficits, rotorod performance (α-synuclein tg mice; β-synuclein overexpression in α-synuclein tg mice (bigenic crosses), FIG. 14): reduced the motor deficits
neuronal loss (α-synuclein tg mice; β-synuclein overexpression in α-synuclein tg mice, FIG. 16): reduction neuronal loss
neuronal inclusions (α-synuclein tg mice; β-synuclein overexpression in α-synuclein tg mice, neuropathological analysis, FIG. 15): reduction of neuronal inclusions
effect on Aβ cytotoxicity / cell survival (B103 neuroblastoma cells): blocked the effects of this cytotoxicity
effect on Aβ toxicity in neuroblastoma cell (summary statement) (B103 neuroblastoma cells): protective

51-60 (Seq ID #11): synthetic peptide, amino acids 51-61 of β-synuclein: Gly Val Ala Ser Val Ala Glu Lys Thr Lys Glu (GVASVAEKTKE; listed as Homo sapiens)
suppression of the formation of SDS-resistant complexes of α-synuclein and Aβ1-40 [3]: significant suppression
suppression of the formation of SDS-resistant complexes of α-synuclein and Aβ1-40 ([3]; listed as a.a. 51-61 of β-synuclein): suppression

α-synuclein [reference compound]
formation of aggregates / amyloid-like fibrils under high temperature conditions [1]: positive aggregation
effect on Aβ cytotoxicity / cell survival (B103 neuroblastoma cells): detrimental to cell survival
effect on Aβ toxicity in neuroblastoma cell (summary statement) (B103 neuroblastoma cells): enhances Aβ toxicity
